Results on 2 compounds are retold here after article PMC9977294, “A parasitic fungus employs mutated eIF4A to survive on rocaglate-synthesizing Aglaia plants” (eLife, 2023).

“And” between values parts separate entries of the source, which are not always exact repeats. Equal entries are not always repeated.

The subject of assay [1] is C. orbiculare eIF4A^His153Gly. As to the kind of experiment: In planta fungal biomass on cucumber cotyledons (RT-qPCR). To be noted: cucumber leaves; 1 µM aglafoline; 3 dpi; Figure 4B. In kind it is in vivo, Colletotrichum orbiculare. On the procedure: (§1) Fungal inoculation was performed as previously described ([Hiruma and Saijo, 2016]; [Kumakura et al., 2019]) with modifications. Cucumber cotyledons were used for C. orbiculare inoculation. Seeds of cucumber, Cucumis sativus Suyo strain (Sakata Seed Corp.), were planted on a mix of equal amounts of vermiculite (VS Kakou) and Supermix A (Sakata Seed Corp.). Cucumbers were grown at 24°C under a 10 hr light/14 hr dark cycle using biotrons (NK Systems). Cotyledons were detached from seedlings of cucumbers and inoculated with C. orbiculare at 13 days post-germination. C. orbiculare strains (eIF4A^WT#1 and eIF4A^H153G#1, Supplementary file 4) were cultured on 100 ml of 3.9% PDA in a 300 ml flask at 25°C for 6 days in the dark. Conidia that appeared on the surface of PDA were suspended in 20 ml of sterilized water, filtered through cell strainers (100 µm pore size, Corning), pelleted by centrifugation at 760 × g for 5 min, and resuspended in sterilized water. The concentration of conidia was measured with disposable hemacytometers (Funakoshi) and adjusted to 10^5 conidia/ml with or without aglafoline (1 µM). […]
Relative expression levels of the C. orbiculare 60S ribosomal protein L5 gene (GenBank: Cob_v012718) ([Gan et al., 2013]) normalized to that of a cucumber cyclophilin gene (GenBank: AY942800.1) ([Liang et al., 2018]) were determined. […]

A further assay has as its system C. orbiculare eIF4A^WT. The description is as above. In kind it is in vivo, Colletotrichum orbiculare. On the procedure:
as §1, with “Conidia that appeared on the surface of PDA were suspended in 20 ml of sterilized water, filtered through cell strainers (100 µm pore size, Corning), pelleted by centrifugation at 760 × g for 5 min, and resuspended in sterilized water.” left out
The living fungal biomass in cucumber leaves at 3.5 days postinoculation (dpi) was measured by RT-qPCR. Relative expression levels of the C. orbiculare 60S ribosomal protein L5 gene (GenBank: Cob_v012718) ([Gan et al., 2013]) normalized to that of a cucumber cyclophilin gene (GenBank: AY942800.1) ([Liang et al., 2018]) were determined. […]

The target of another assay is T1, H. sapiens eIF4A1 WT (Homo sapiens, UniProt P60842).
T1 construct: His tag (N); made in house; host or cells: E. coli BL21 Star (DE3)
T1 sequence (P60842 whole entry): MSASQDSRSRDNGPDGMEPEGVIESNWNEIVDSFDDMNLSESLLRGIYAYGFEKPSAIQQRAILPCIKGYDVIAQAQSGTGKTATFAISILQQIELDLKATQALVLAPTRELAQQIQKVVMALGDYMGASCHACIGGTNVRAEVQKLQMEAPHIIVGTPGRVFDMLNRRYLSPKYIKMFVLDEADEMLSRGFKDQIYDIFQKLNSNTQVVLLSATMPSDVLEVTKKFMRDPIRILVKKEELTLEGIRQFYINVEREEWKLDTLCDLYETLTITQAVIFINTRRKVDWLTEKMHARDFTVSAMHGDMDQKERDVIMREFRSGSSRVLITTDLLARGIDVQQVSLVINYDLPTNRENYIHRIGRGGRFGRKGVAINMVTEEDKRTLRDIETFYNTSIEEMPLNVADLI
In words: In vitro translation assay in reconstituted system with human factors. In kind it is biochemical. The following applies: for translation of reporter mRNA, Mean / translation of reporter mRNA, replicates: CAA repeats reporter, value at 0 μM RocA = 1. The source says:
(§2) The DNA fragments PCR-amplified from psiCHECK2−7×AGAGAG motifs or psiCHECK2-CAA repeats ([Iwasaki et al., 2016]) were used as a template for in vitro transcription with a T7-Scribe Standard RNA IVT Kit ([…]). RNA was capped and poly(A) tailed with a ScriptCap m^7G Capping System, a ScriptCap 2′-O-Methyltransferase Kit, and an A-Plus Poly(A) Polymerase Tailing Kit ([…]).
(§3) The reconstitution system for human translation has been described previously ([Iwasaki et al., 2019]; [Machida et al., 2018]; [Yokoyama et al., 2019]). The in vitro translation reaction and luciferase assay were performed as previously described ([Iwasaki et al., 2019]) with some modifications. The final concentrations of mRNA and the eIF4A protein were 60 ng/µl and 2.16 µM, respectively. The translation mixture was incubated for 2.5 hr. The fluorescence signal was detected using the Renilla-Glo Luciferase Assay System (Promega) and measured in an EnVision 2104 plate reader (PerkinElmer).

For assay [2], the target named is T2, H. sapiens eIF4A1 Phe163Gly (Homo sapiens, UniProt P60842, F163G).
T2 construct: His tag (N); made in house; host or cells: E. coli BL21 Star (DE3)
T2 sequence (P60842 whole entry F163G): as the sequence (P60842 whole entry) above, with F163G counted along it
Described as above. In kind it is biochemical. To be noted: for translation of reporter mRNA, Mean / translation of reporter mRNA, replicates: CAA repeats reporter, value at 0 μM RocA = 1.
Text: as §2, §3

In the case of `COC(=O)[C@H]1[C@@H](O)[C@@]2(O)c3c(OC)cc(OC)cc3O[C@@]2(c2ccc(OC)cc2)[C@@H]1c1ccccc1` [Aglafoline, methyl rocaglate], the “in planta fungal biomass” value in assay [1] was “resulted in rocaglate resistance in the fungi”; with C. orbiculare eIF4A^WT (cucumber leaves, 1 µM aglafoline, 3 dpi, Figure 4B), “reduced the biomass of the WT eIF4A-recombined strain on cucumber leaves”. The “In planta fungal biomass (Figure 4B source data), single replicates” value in the assay on C. orbiculare eIF4A^WT (eIF4AWT, aglafoline +, Replicate 1-8) was 0.01241 and 0.4556 and 0.03831 and 0.01038 and 0.09347 and 0.5781 and 0.1819 and 0.09019.
Take `COc1ccc([C@@]23Oc4cc(OC)cc(OC)c4[C@]2(O)[C@H](O)[C@H](C(=O)N(C)C)[C@H]3c2ccccc2)cc1` [RocA, rocaglamide A]: the “translation of reporter mRNA, Mean” value amounted to 1.2394 at H. sapiens eIF4A1 WT (RocA 0.1 μM); 1.148 on H. sapiens eIF4A1 WT (RocA 1 μM); 1.012 at H. sapiens eIF4A1 WT (RocA 10 μM); 1.06 in assay [2] (RocA 0.1 μM); 1.42 in assay [2] (RocA 1 μM); 0.918 in assay [2] (RocA 10 μM). Further, the “translation of reporter mRNA, replicates” value on H. sapiens eIF4A1 WT (RocA 0.1 μM) was 0.9075 and 1.715 and 1.095; on H. sapiens eIF4A1 WT (RocA 1 μM) it was 0.7715 and 1.702 and 0.9709; on H. sapiens eIF4A1 WT (RocA 10 μM), 0.7743 and 1.31 and 0.9501; in assay [2] (RocA 0.1 μM) it was 0.8871 and 1.301 and 0.9923; in assay [2] (RocA 1 μM), 0.8083 and 2.551 and 0.9008; in assay [2] (RocA 10 μM), 0.6256 and 1.131 and 0.9971. Besides, the “translation of reporter mRNA” value is given as “translation reduction from polypurine motif-possessing reporter mRNA” on H. sapiens eIF4A1 WT (polypurine motif-possessing reporter mRNA, Figure 3A) and “prevented the translation repression mediated by RocA” in assay [2] (polypurine motif reporter mRNA, Figure 3A).
